Results as given in patent US20250019387A1 (Frontier Medicines Corporation, priority 0001, published 2025).

Each compound was assayed against KRAS G12C and cRAF (Ras-binding domain) interaction (Homo sapiens (Human), UniProt P01116, C118S/C51S/C80L/G12C) (assay: Inhibition of KRAS G12C and cRAF binding (AlphaScreen)). Details: GMPPNP-loaded KRAS G12C, 19-20 hours incubation with compound; read-out: IC50 (Inhibition of KRAS G12C and cRAF Binding).
How it was run: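 Compounds (DMSO) preincubated 19-20 h at room temperature, then RBD with streptavidin donor and glutathione acceptor beads added in 25 mM Hepes pH 7.4, 150 mM NaCl, 5 mM MgCl2, 0.01% Triton X-100, 2% DMSO for 60-90 min. Emission 570 nm (excitation 680 nm); IC50 by 4-parameter fit. Counter-screen used biotin-AviTag-GST instead of RBD.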

Sequence of KRAS G12C and cRAF (Ras-binding domain) interaction (P01116 other isoform, or with tags, fused parts or gaps G12C/C51S/C80L/C118S): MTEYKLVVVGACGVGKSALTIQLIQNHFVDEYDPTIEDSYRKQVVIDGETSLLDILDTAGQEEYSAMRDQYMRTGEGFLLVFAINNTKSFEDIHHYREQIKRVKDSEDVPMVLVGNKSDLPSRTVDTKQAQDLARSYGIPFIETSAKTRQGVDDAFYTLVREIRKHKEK

Compound | IC50
C/C=C/S(=O)(=O)CCN(C)c1nc(OCC23CCCN2CCC3)nc2c1CCN(c1cccc3cccc(Cl)c13)C2 [Example 54, (E)-7-(8-chloronaphthalen-1-yl)-2-((hexahydro-1H-pyrrolizin-7a-yl)methoxy)-N-methyl-N-(2-(prop-1-en-1-ylsulfonyl)ethyl)-5,6,7,8-tetrahydropyrido[3,4-d]pyrimidin-4-amine] | 100 to 500 nM
CN(c1nc(OC[C@@]23CCCN2C[C@H](F)C3)nc2c(F)c(-c3cccc4ccc(F)c(Cl)c34)ncc12)[C@@H]1CCN(C(=O)/C=C/[C@H]2CCN2CCO)C1 [Example 222, (E)-1-((R)-3-((7-(8-chloro-7-fluoronaphthalen-1-yl)-8-fluoro-2-(((2R,7aS)-2-fluorotetrahydro-1H-pyrrolizin-7a(5H)-yl)methoxy)pyrido[4,3-d]pyrimidin-4-yl)(methyl)amino)pyrrolidin-1-yl)-3-((R)-1-(2-hydroxyethyl)azetidin-2-yl)prop-2-en-1-one] | < 10 nM
Cc1nccc(/C=C/C(=O)N2CCC[C@@H](Nc3nc(OC[C@@]45CCCN4C[C@H](F)C5)nc4c(F)c(-c5cccc6cccc(Cl)c56)ncc34)C2)n1 [Example 262, (E)-1-((R)-3-((7-(8-chloronaphthalen-1-yl)-8-fluoro-2-(((2R,7aS)-2-fluorotetrahydro-1H-pyrrolizin-7a(5H)-yl)methoxy)pyrido[4,3-d]pyrimidin-4-yl)amino)piperidin-1-yl)-3-(2-methylpyrimidin-4-yl)prop-2-en-1-one] | 100 to 500 nM
C=CC(=O)N1CC[C@@H](N(C)c2nc(OCC34CCCN3CCC4)nc3c(F)c(-c4cccc5ccc(F)c(F)c45)ncc23)C1 [Example 265, (R)-1-(3-((7-(7,8-difluoronaphthalen-1-yl)-8-fluoro-2-((tetrahydro-1H-pyrrolizin-7a(5H)-yl)methoxy)pyrido[4,3-d]pyrimidin-4-yl)(methyl)amino)pyrrolidin-1-yl)prop-2-en-1-one] | 10 to 100 nM
CN(CC1CN(C(=O)/C=C/CN2CCOCC2)C1)c1nc(OC[C@@]23CCCN2C[C@H](F)C3)nc2c(F)c(-c3cccc4ccc(F)c(Cl)c34)ncc12 [Example 79, (E)-1-(3-(((7-(8-chloro-7-fluoronaphthalen-1-yl)-8-fluoro-2-(((2R,7aS)-2-fluorotetrahydro-1H-pyrrolizin-7a(5H)-yl)methoxy)pyrido[4,3-d]pyrimidin-4-yl)(methyl)amino)methyl)azetidin-1-yl)-4-morpholinobut-2-en-1-one] | 10 to 100 nM
CN1CCC[C@H]1COc1nc2c(c(N3CC[C@@H]4CN(C#N)C[C@@H]43)n1)CCN(c1cccc3cccc(Cl)c13)C2 [Example 37, (3aR,6aR)-1-(7-(8-chloronaphthalen-1-yl)-2-(((S)-1-methylpyrrolidin-2-yl)methoxy)-5,6,7,8-tetrahydropyrido[3,4-d]pyrimidin-4-yl)hexahydropyrrolo[3,4-b]pyrrole-5(1H)-carbonitrile] | 100 to 500 nM
Cc1cc(/C=C/C(=O)N2CCN(c3nc(OC[C@@]45CCCN4C[C@H](F)C5)nc4c(F)c(-c5cccc6cccc(Cl)c56)ncc34)CC2)nc(C)n1 [Example 243, (E)-1-(4-(7-(8-chloronaphthalen-1-yl)-8-fluoro-2-(((2R,7aS)-2-fluorotetrahydro-1H-pyrrolizin-7a(5H)-yl)methoxy)pyrido[4,3-d]pyrimidin-4-yl)piperazin-1-yl)-3-(2,6-dimethylpyrimidin-4-yl)prop-2-en-1-one] | 100 to 500 nM
CN(c1nc(OC[C@@]23CCCN2C[C@H](F)C3)nc2c(F)c(-c3cccc4cccc(Cl)c34)ncc12)[C@@H]1CCN(C(=O)C#CC2COCCN2)C1 (stereo partly drawn) [Example 238, 1-((R)-3-((7-(8-chloronaphthalen-1-yl)-8-fluoro-2-(((2R,7aS)-2-fluorohexahydro-1H-pyrrolizin-7a-yl)methoxy)pyrido[4,3-d]pyrimidin-4-yl)(methyl)amino)pyrrolidin-1-yl)-3-(morpholin-3-yl)prop-2-yn-1-one] | 10 to 100 nM
C[C@@H](F)c1noc(/C=C/C(=O)N2CC[C@@H](N(C)c3nc(OC[C@@]45CCCN4C[C@H](F)C5)nc4c(F)c(-c5cccc6cccc(Cl)c56)ncc34)C2)n1 [Example 84, (E)-1-((R)-3-((7-(8-chloronaphthalen-1-yl)-8-fluoro-2-(((2R,7aS)-2-fluorotetrahydro-1H-pyrrolizin-7a(5H)-yl)methoxy)pyrido[4,3-d]pyrimidin-4-yl)(methyl)amino)pyrrolidin-1-yl)-3-(3-((R)-1-fluoroethyl)-1,2,4-oxadiazol-5-yl)prop-2-en-1-one] | < 10 nM
Cc1c(F)ccc2c(-c3ncc4c(N(C)[C@@H]5CCN(C(=O)/C=C/[C@H]6CCN6C)C5)nc(OC[C@@]56CCCN5C[C@H](F)C6)nc4c3F)cccc12 [Example 282, (E)-1-((R)-3-((8-fluoro-7-(6-fluoro-5-methylnaphthalen-1-yl)-2-(((2R,7aS)-2-fluorotetrahydro-1H-pyrrolizin-7a(5H)-yl)methoxy)pyrido[4,3-d]pyrimidin-4-yl)(methyl)amino)pyrrolidin-1-yl)-3-((R)-1-methylazetidin-2-yl)prop-2-en-1-one] | 100 to 500 nM
CN(c1nc(OC[C@@]23CCCN2C[C@H](F)C3)nc2c(F)c(-c3cccc4ccc(F)c(Cl)c34)ncc12)[C@@H]1CCN(C(=O)/C=C/C2CNCCO2)C1 (stereo partly shown) [Example 122] | 100 to 500 nM
Cc1cc(/C=C/C(=O)N2CC[C@@H](Nc3nc(OC[C@@]45CCCN4C[C@H](F)C5)nc4c(F)c(-c5cccc6ccc(F)c(F)c56)ncc34)C2)nc(C)n1 [Example 296, (E)-1-((R)-3-((7-(7,8-difluoronaphthalen-1-yl)-8-fluoro-2-(((2R,7aS)-2-fluorohexahydro-1H-pyrrolizin-7a-yl)methoxy)pyrido[4,3-d]pyrimidin-4-yl)amino)pyrrolidin-1-yl)-3-(2,6-dimethylpyrimidin-4-yl)prop-2-en-1-one] | 10 to 100 nM
C=CS(=O)(=O)CCCN(C)c1nc(OC[C@@H]2CCCN2C)nc2c1CCN(c1cccc3cccc(Cl)c13)C2 [Example 46, (S)-7-(8-chloronaphthalen-1-yl)-N-methyl-2-((1-methylpyrrolidin-2-yl)methoxy)-N-(3-(vinylsulfonyl)propyl)-5,6,7,8-tetrahydropyrido[3,4-d]pyrimidin-4-amine] | > 500 nM

Same assay, conditions: additional exemplary compounds; KRAS G12C and cRAF binding; read-out: RAF1 RBD IC50

Compound | IC50
CN(c1nc(OCC23CCCN2CCC3)nc2c1CCN(c1cccc3cccc(Cl)c13)C2)[C@@H]1CCN(C(=O)/C=C/C2(C)COC2)C1 | > 500 nM
C#Cc1c(F)ccc2cccc(-c3ncc4c(N(C)[C@@H]5CCN(C(=O)/C=C/c6ccccn6)C5)nc(OC[C@@]56CCCN5C[C@H](F)C6)nc4c3F)c12 | > 500 nM
C=CC(=O)N1C[C@@H](F)[C@H](N(C)c2nc(OC[C@@]34CCCN3C[C@H](F)C4)nc3c(F)c(-c4cccc5cccc(Cl)c45)ncc23)C1 | > 500 nM
C=CC(=O)N1C[C@H](N(C)c2nc(OCC34CCCN3CCC4)nc3c2CCN(c2cccc4cccc(Cl)c24)C3)C[C@@H]1C#N | 100 to 500 nM
C=CC(=O)N1CC[C@H](Nc2nc(OC[C@@]34CCCN3C[C@H](F)C4)nc3c(F)c(-c4cccc5cccc(Cl)c45)ncc23)C1 | > 500 nM
C#Cc1c(F)ccc2cccc(-c3ncc4c(N(C)[C@@H]5CCN(C(=O)/C=C/c6cccnc6)C5)nc(OC[C@@]56CCCN5C[C@H](F)C6)nc4c3F)c12 | > 500 nM
